According to paper PMC2481421, “Gene expression response in target organ and whole blood varies as a function of target organ injury phenotype” (Genome Biology, 2008):
Where “and” joins values, the source holds several entries; their conditions need not be identical. Equal values may be shown once. Entries after “also recorded” stand apart in the source; their conditions may differ.

What was measured:
serum = assay: Serum clinical chemistry (COBAS MIRA); assay type: in vivo, Male Fischer 344/N rats; conditions: rat, 15 mg/kg, 6 hours, animal 5
Procedure: (§1) Doses were determined with pilot experiments. […] Serum was collected for clinical chemistry.
At sacrifice, blood was collected in clotting tubes (BD Microtainer® Tubes, BD, Franklin Lakes, NJ, USA) and serum was separated. Clinical chemistry analysis was performed on all rats using a COBAS MIRA (Roche Diagnostics, Montclair, NJ, USA) using commercially available reagents from Equal Diagnostics (Exton, PA, USA) for the following assays: total protein, albumin, cholesterol, creatinine, direct bilirubin, total bilirubin, total bile acid, blood urea nitrogen and triglycerides. In addition, an enzymatic activity for the following proteins was measured: alanine aminotransferase, alkaline phosphatase, aspartate aminotransferase, lactate dehydrogenase, and sorbitol dehydrogenase. Additional data file 1 details the clinical chemistry value for each of these parameters for every animal.

whole blood = assay: Hematology of whole blood (Technicon H*1, differential and reticulocyte counts); assay type: in vivo, Male Fischer 344/N rats; conditions: rat, 15 mg/kg, 6 hours, animal 5
Procedure: as §1
Blood was collected in EDTA tubes (BD Microtainer® Tubes). The samples were assayed using the Technicon H*1 hematology analyzer (Bayer Corporation, Tarrytown, NY, USA). The instrument performs white blood cell (WBC) counts by two independent methods. The values must have agreed within 10%. Manual counts and smear estimates were used to confirm values, when necessary. To monitor red blood cell (RBC) parameters, spun microhematocrits were performed for each specimen for comparison with the automated hematocrit (which is calculated from the directly measured RBCs and the mean cell volume). Control products were assayed after every tenth specimen. For WBC differential data, smears were Wright-Giemsa stained using an Ames Hema-Tek II automated slide stainer (Bayer Corporation, Ames Division, Elkhart, IN, USA) and manual WBC differential counts were performed on the first sample in each group. For reticulocyte counts, equal amounts of whole blood and New Methylene Blue stain were allowed to incubate at room temperature for at least 15 minutes. Smears were prepared and read to determine the percent reticulocytes per 1,000 RBCs. The percent value is multiplied by the RBC count to determine the absolute number of reticulocytes per microliter. Additional data file 1 details the values for each of these parameters for every animal.

[1] = In-life observations: body weight, gross findings before and at necropsy; assay type: in vivo, Male Fischer 344/N rats; conditions: gavage, corn oil, individual animals
Procedure: as §1

liver = assay: Liver histopathology (H&E sections of left liver lobe, severity graded) after a single dose; conditions: for level of hepatocellular necrosis: medium dose, 6 hour
[2] = 150 mg/kg, 24 hours, listed as 1, 2-Dichlorobenzene
[3] = 150 mg/kg, 48 hours, listed as 1, 2-Dichlorobenzene
[4] = 1500 mg/kg, 24 hours, listed as 1, 2-Dichlorobenzene
[5] = 1500 mg/kg, 48 hours, listed as 1, 2-Dichlorobenzene
[6] = categorical score, rat, 15 mg/kg, 6 hours, animal 5
[7] = severity score, rat, 15 mg/kg, 6 hours, animal 5

Which results are given for `Clc1ccccc1Cl` [1,2-Dichlorobenzene]?
ALP (serum): 269 U/L; ALT (serum): 54 U/L; AST (serum): 128 U/l; Alb (serum): 2.9 g/dL; BUN (serum): 20 mg/dL; CK (serum): 479 U/L; Chol (serum): 45 mg/dL; Crea (serum): 1 mg/dL; D.Bil (serum): 0.2; LDH (serum): 454 U/L; SDH (serum): 5 U/L; T.Bil (serum): 0.9; T.Protein (serum): 6.7 g/dL; Trig (serum): 195 mg/dL; % (Retic) (whole blood): 1.9%; Absolute Retic (whole blood): 0.1604; Baso-phils (whole blood): 0.03; Eosino-phils (whole blood): 0.06; Hct (whole blood): 43.4%; Hgb 9g/dL0 (whole blood): 15 g/dL; LUCs (atyical) (whole blood): 0.04; Lympho-cytes (whole blood): 2.84; MCH (whole blood): 17.8 pg; MCV (whole blood): 51.4 fL; Mono-cytes (whole blood): 0.2; Neuts (Segs) (whole blood): 1.59; Platelets (whole blood): 601 1000/ul; RBC (whole blood): 8.44 mil/ul; Spun Hct (whole blood): 45%; WBC (whole blood): 4.77 1000/ul; Clin/Ob Prior to Necropsy ([1]; 15 mg/kg, 6 hours): Normal; Gross Findings ([1]; 15 mg/kg, 6 hours): No Gross Findings; Clin/Ob Prior to Necropsy ([1]; 15 mg/kg, 24 hours): normal; Gross Findings ([1]; 15 mg/kg, 24 hours): No Gross Findings; Final Body Wt. ([1]; 15 mg/kg, 24 hours, listed as 1, 2-Dichlorobenzene): 225.00 g and 229.20 g and 252.70 g and 262.00 g; Clin/Ob Prior to Necropsy ([1]; 15 mg/kg, 48 hours): normal; Gross Findings ([1]; 15 mg/kg, 48 hours): No Gross Findings; Final Body Wt. ([1]; 15 mg/kg, 48 hours, listed as 1, 2-Dichlorobenzene): 238.50 g and 244.20 g and 246.80 g and 250.10 g; Clin/Ob Prior to Necropsy ([1]; 150 mg/kg, 6 hours): Normal; Gross Findings ([1]; 150 mg/kg, 6 hours): No Gross Findings; Clin/Ob Prior to Necropsy [1, 2]: normal; also recorded: lethargic; Final Body Wt. [1, 2]: 217.90 g and 205.90 g and 233.30 g and 249.00 g; Gross Findings [1, 2]: No Gross Findings; also recorded: left & median liver lobe mottled; left dark on edges; Clin/Ob Prior to Necropsy ([1]; 150 mg/kg, 48 hours): normal; Final Body Wt. [1, 3]: 235.70 g and 244.20 g and 239.50 g and 241.90 g; Gross Findings [1, 3]: No Gross Findings; also recorded: left liver lobe rough surface; Clin/Ob Prior to Necropsy ([1]; 1500 mg/kg, 6 hours): Normal; Gross Findings ([1]; 1500 mg/kg, 6 hours): No Gross Findings; Clin/Ob Prior to Necropsy [1, 4]: lethargic; also recorded: normal; Final Body Wt. [1, 4]: 207.10 g and 207.70 g and 219.70 g and 225.00 g; Gross Findings [1, 4]: left & median liver lobes mottled; left dark on edges; also recorded: No Gross Findings; also recorded: left & median liver lobes mottled; median dark on edges; Clin/Ob Prior to Necropsy ([1]; 1500 mg/kg, 48 hours): lethargic; Final Body Wt. [1, 5]: 208.60 g and 211.10 g; Gross Findings [1, 5]: No Gross Findings; also recorded: left & median liver lobes rough surface; Inflammation (liver; [6]): 0; Repair (liver; [6]): 0; Response to Hepatocellular Injury (liver; [6]): 0; level of hepatocellular necrosis (liver; animal 2): did not have any observable necrosis; level of hepatocellular necrosis (liver; animals 1, 3, and 4): minimal; Bile Duct Hyperplasia (liver; [7]): 0; Cellular Infiltration, Mixed Cell (liver; [7]): 0; Cellular Infiltration, Mononuclear Cell (liver; [7]): 0; Cellular Infiltration, Neutrophil (liver; [7]): 0; Centrilobular Cellular Infiltration, Mixed Cell (liver; [7]): 0; Centrilobular Cellular Infiltration, Mononuclear Cell (liver; [7]): 0; Centrilobular Cellular Infiltration, Neutrophil (liver; [7]): 0; Centrilobular Hepatocyte Degeneration (liver; [7]): 0; Centrilobular Hepatocyte Necrosis (liver; [7]): 0; Centrilobular, Hepatocyte, Midzonal Degeneration (liver; [7]): 0; Centrilobular, Hepatocyte, Midzonal Necrosis (liver; [7]): 0; Congestion (liver; [7]): 0; Depletion Glycogen (liver; [7]): 0; Focal Hepatocyte Necrosis (liver; [7]): 0; Hemorrhage (liver; [7]): 0; Hepatocyte Apoptosis (liver; [7]): 0; Hepatocyte Fatty Change (liver; [7]): 0; Hepatocyte Hypertrophy (liver; [7]): 0; Hepatocyte Necrosis (liver; [7]): 0; Hepatocyte Regeneration (liver; [7]): 0; Midzonal Centrilobular Cellular Infiltration, Mixed Cell (liver; [7]): 0; Midzonal Centrilobular Cellular Infiltration, Neutrophil (liver; [7]): 0; Midzonal Hepatocyte Necrosis (liver; [7]): 0; Mitosis (liver; [7]): 0; Portal Cellular Infiltration, Mixed Cell (liver; [7]): 0; Portal Cellular Infiltration, Neutrophil (liver; [7]): 0
